Laboratory results: ChEMBL document CHEMBL5584244, “Discovery of novel pyrrolo[2,1-c][1,4]benzodiazepine-3,11-dione (PBD) derivatives as selective HDAC6 inhibitors for the efficient treatment of idiopathic pulmonary fibrosis (IPF) in vitro and in vivo” (Eur J Med Chem, 2024)
The source made the active and inactive calls. No cut-off for these calls is given here.

Columns and labels:
[1] = target: T1, Protein deacetylase HDAC6 (Homo sapiens, UniProt Q9UBN7); assay: Inhibition of recombinant human full length HDAC6 using Boc-Lys (Ac)-AMC as substrate incubated for 120 mins by fluorescence analysis
T1 sequence (Q9UBN7 whole entry): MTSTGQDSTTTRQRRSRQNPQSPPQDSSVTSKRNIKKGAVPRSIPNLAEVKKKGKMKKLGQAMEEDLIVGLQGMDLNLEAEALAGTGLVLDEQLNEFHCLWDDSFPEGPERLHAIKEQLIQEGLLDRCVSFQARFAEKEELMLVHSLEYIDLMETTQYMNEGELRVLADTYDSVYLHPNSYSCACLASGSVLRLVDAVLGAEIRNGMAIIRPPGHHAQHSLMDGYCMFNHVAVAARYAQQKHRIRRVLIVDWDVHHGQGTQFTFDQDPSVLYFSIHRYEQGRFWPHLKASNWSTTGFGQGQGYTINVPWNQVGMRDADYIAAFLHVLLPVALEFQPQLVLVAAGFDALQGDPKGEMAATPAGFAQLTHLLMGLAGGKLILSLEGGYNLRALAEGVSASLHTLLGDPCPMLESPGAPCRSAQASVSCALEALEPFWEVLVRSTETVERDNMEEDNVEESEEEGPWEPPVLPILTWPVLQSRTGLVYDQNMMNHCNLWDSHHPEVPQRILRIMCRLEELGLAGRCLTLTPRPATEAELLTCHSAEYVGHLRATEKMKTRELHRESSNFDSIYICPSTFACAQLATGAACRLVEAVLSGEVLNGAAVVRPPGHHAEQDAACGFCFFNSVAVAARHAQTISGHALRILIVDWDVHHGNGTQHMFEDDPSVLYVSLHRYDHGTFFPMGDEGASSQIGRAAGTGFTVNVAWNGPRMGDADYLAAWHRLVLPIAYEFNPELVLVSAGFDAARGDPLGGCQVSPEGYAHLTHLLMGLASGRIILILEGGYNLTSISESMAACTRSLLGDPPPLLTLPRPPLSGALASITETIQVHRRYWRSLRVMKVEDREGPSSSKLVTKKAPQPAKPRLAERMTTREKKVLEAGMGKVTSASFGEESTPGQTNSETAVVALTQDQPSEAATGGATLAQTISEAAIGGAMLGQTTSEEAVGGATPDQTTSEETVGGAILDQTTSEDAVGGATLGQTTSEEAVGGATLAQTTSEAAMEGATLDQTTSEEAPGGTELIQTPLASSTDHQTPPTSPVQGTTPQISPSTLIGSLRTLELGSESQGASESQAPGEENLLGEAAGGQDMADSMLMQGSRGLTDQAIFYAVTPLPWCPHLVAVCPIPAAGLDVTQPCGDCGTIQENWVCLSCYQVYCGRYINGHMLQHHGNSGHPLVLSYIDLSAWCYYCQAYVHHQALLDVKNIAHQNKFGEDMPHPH

Mus musculus [2] = assay: Anti-pulmonary fibrosis activity in bleomycin-induced C57BL/6 mouse model of pulmonary fibrosis assessed as increase in body weight at 100 mg/kg, ip for 3 weeks; format: functional, organism-based
Mus musculus [3] = assay: Anti-pulmonary fibrosis activity in bleomycin-induced C57BL/6 mouse model of pulmonary fibrosis assessed as decrease structural damage in lung at 100 mg/kg, ip for 3 weeks by H and E staining based fluorescence microscopic analysis; format: functional, organism-based
Mus musculus [4] = assay: Anti-pulmonary fibrosis activity in bleomycin-induced C57BL/6 mouse model of pulmonary fibrosis assessed as decrease in collapse of the alveolar cavity in lung at 100 mg/kg, ip for 3 weeks by H and E staining based fluorescence microscopic analysis; format: functional, organism-based
Mus musculus [5] = assay: Anti-pulmonary fibrosis activity in bleomycin-induced C57BL/6 mouse model of pulmonary fibrosis assessed as decrease in disturbance of alveolar structure in lung at 100 mg/kg, ip for 3 weeks by H and E staining based fluorescence microscopic analysis; format: functional, organism-based
Mus musculus [6] = assay: Anti-pulmonary fibrosis activity in bleomycin-induced C57BL/6 mouse model of pulmonary fibrosis assessed as decrease in thickening of the alveolar wall in lung at 100 mg/kg, ip for 3 weeks by H and E staining based fluorescence microscopic analysis; format: functional, organism-based
Mus musculus [7] = assay: Anti-pulmonary fibrosis activity in bleomycin-induced C57BL/6 mouse model of pulmonary fibrosis assessed as decrease in inflammatory cell infiltration in lung at 100 mg/kg, ip for 3 weeks by H and E staining based fluorescence microscopic analysis; format: functional, organism-based
Mus musculus [8] = assay: Anti-pulmonary fibrosis activity in bleomycin-induced C57BL/6 mouse model of pulmonary fibrosis assessed as decrease in fibrosis scars in lung at 100 mg/kg, ip for 3 weeks by H and E staining based fluorescence microscopic analysis; format: functional, organism-based
Mus musculus [9] = assay: Anti-pulmonary fibrosis activity in bleomycin-induced C57BL/6 mouse model of pulmonary fibrosis assessed as decrease in structural damage in lung at 100 mg/kg, ip for 3 weeks by Masson trichrome staining based microscopic analysis; format: functional, organism-based
Mus musculus [10] = assay: Anti-pulmonary fibrosis activity in bleomycin-induced C57BL/6 mouse model of pulmonary fibrosis assessed as decrease in collapse of the alveolar cavity in lung at 100 mg/kg, ip for 3 weeks by Masson trichrome staining based microscopic analysis; format: functional, organism-based
Mus musculus [11] = assay: Anti-pulmonary fibrosis activity in bleomycin-induced C57BL/6 mouse model of pulmonary fibrosis assessed as decrease in thickening of the alveolar wall in lung at 100 mg/kg, ip for 3 weeks by Masson trichrome staining based microscopic analysis; format: functional, organism-based
Mus musculus [12] = assay: Anti-pulmonary fibrosis activity in bleomycin-induced C57BL/6 mouse model of pulmonary fibrosis assessed as decrease in collagen level in lung at 100 mg/kg, ip for 3 weeks by Masson trichrome staining based microscopic analysis; format: functional, organism-based
Histone deacetylase 1 = Histone deacetylase 1 (Homo sapiens, UniProt Q13547); assay: Inhibition of C-terminal His6/Flag-tagged recombinant human full length HDAC1 using Boc-Lys (Ac)-AMC as substrate incubated for 120 mins by fluorescence analysis
Chain of Histone deacetylase 1 (Q13547 whole entry): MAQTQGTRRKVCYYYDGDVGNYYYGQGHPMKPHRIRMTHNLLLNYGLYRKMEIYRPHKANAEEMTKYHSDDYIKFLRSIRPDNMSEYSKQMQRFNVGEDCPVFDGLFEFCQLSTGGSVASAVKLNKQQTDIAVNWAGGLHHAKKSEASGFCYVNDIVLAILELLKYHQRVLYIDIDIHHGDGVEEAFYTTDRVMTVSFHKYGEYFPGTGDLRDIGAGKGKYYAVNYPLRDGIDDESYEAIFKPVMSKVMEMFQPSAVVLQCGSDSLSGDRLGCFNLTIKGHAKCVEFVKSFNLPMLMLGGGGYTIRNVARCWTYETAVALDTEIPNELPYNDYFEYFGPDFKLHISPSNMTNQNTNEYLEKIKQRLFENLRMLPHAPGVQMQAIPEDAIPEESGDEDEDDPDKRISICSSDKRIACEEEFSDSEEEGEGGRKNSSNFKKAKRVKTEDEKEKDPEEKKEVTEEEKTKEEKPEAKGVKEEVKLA

Histone deacetylase 2 = Histone deacetylase 2 (Homo sapiens, UniProt Q92769); assay: Inhibition of recombinant human full length HDAC2 using Boc-Lys (Ac)-AMC as substrate incubated for 120 mins by fluorescence analysis
Chain of Histone deacetylase 2 (Q92769 whole entry): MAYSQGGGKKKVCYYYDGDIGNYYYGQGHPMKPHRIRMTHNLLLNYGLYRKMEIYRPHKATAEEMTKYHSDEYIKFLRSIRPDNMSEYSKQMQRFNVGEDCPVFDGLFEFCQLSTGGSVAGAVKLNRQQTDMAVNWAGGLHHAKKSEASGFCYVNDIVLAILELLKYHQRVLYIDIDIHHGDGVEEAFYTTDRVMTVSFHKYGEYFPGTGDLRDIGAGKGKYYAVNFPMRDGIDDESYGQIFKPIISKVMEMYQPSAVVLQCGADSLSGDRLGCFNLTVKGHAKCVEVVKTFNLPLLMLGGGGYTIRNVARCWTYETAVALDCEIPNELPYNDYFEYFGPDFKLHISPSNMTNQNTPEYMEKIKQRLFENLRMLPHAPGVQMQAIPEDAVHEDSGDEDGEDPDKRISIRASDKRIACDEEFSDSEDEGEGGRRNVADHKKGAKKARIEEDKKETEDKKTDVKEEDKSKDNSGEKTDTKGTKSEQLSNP

Histone deacetylase 4 = Histone deacetylase 4 (Homo sapiens, UniProt P56524); assay: Inhibition of recombinant human HDAC4 using Boc-Lys (Ac)-AMC as substrate incubated for 120 mins by fluorescence analysis
Chain of Histone deacetylase 4 (P56524 whole entry): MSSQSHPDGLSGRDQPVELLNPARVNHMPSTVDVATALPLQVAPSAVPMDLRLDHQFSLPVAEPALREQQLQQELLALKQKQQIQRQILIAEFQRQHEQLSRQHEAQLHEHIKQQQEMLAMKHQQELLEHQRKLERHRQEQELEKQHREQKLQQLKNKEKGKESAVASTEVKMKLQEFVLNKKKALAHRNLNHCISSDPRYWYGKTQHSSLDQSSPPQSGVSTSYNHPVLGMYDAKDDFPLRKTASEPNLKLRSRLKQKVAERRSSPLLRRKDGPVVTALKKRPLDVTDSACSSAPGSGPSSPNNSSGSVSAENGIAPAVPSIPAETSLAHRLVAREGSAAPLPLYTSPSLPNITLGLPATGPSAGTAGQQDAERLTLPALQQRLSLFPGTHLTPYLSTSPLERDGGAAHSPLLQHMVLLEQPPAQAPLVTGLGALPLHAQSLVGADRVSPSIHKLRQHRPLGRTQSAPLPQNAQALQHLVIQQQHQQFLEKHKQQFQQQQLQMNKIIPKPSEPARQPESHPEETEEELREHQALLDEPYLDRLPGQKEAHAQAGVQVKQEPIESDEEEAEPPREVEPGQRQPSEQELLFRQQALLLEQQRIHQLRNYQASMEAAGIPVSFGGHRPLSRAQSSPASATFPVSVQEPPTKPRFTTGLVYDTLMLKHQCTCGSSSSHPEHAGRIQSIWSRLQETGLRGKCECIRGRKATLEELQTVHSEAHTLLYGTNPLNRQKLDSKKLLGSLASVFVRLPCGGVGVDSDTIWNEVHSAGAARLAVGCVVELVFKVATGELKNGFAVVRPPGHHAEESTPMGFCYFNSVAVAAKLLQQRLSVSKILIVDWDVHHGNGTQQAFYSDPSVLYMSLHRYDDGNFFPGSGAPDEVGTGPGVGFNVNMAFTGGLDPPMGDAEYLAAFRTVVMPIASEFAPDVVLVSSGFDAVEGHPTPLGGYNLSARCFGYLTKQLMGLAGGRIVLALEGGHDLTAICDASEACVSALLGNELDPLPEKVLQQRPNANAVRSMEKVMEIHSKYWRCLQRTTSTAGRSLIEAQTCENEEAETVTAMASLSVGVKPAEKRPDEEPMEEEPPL

Histone deacetylase 7 = target: T2, Histone deacetylase 7 (Homo sapiens, UniProt Q8WUI4); assay: Inhibition of N-terminal GST-tagged recombinant human HDAC7 (518 to end residues) expressed in baculovirus expression system using Boc-Lys (Tfa)-AMC as substrate incubated for 120 mins by fluorescence analysis
T2 sequence (Q8WUI4 whole entry): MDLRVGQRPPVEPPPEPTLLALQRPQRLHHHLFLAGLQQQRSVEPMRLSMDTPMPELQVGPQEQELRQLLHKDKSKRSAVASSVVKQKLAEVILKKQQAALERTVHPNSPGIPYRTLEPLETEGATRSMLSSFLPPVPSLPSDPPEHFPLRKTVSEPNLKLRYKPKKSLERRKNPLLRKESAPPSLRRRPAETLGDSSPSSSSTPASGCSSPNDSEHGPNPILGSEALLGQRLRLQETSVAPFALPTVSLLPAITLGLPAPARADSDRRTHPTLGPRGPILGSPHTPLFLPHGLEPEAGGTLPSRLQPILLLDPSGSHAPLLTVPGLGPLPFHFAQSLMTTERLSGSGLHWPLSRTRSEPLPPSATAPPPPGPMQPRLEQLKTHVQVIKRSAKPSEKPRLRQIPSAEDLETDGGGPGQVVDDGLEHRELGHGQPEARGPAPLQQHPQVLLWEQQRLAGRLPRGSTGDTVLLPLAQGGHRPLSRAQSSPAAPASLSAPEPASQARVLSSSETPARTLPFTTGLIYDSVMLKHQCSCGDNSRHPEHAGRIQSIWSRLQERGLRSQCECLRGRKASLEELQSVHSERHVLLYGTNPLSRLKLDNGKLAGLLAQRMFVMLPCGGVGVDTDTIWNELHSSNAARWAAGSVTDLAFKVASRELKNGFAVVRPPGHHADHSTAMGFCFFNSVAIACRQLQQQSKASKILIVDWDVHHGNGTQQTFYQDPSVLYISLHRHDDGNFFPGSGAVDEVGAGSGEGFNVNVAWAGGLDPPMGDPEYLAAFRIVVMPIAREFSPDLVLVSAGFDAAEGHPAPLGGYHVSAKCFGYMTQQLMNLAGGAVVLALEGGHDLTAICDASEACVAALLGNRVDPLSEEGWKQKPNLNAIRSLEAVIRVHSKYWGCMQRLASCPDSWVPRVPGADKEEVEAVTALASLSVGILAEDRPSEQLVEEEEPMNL

[13] = target: T3, Polyamine deacetylase HDAC10 (Homo sapiens, UniProt Q969S8); assay: Inhibition of N-terminal FLAG-tagged recombinant human HDAC10 (2 to 631 residues) expressed in baculovirus sf9 insect cells expression system using Boc-Lys (Ac)-AMC as substrate incubated for 120 mins by fluorescence analysis
T3 sequence (Q969S8 whole entry): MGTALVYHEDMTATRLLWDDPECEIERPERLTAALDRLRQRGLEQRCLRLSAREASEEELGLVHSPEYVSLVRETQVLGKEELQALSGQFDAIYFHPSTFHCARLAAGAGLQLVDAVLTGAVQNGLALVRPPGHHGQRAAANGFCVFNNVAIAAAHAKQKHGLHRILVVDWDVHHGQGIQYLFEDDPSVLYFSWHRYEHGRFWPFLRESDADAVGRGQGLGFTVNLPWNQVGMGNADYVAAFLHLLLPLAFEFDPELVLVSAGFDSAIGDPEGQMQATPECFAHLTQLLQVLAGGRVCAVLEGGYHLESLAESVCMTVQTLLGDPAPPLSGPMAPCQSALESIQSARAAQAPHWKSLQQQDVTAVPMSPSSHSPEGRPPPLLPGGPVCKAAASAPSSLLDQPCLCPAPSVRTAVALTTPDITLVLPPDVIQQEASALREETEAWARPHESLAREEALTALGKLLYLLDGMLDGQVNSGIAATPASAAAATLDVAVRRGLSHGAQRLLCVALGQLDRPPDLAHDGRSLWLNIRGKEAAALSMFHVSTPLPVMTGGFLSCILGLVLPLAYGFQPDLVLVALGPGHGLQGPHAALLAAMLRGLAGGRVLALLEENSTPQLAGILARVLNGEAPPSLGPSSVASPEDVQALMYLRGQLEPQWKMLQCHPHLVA

Histone deacetylase 11 = target: T4, Histone deacetylase 11 (Homo sapiens, UniProt Q96DB2); assay: Inhibition of recombinant human full length HDAC11 using Boc-Lys (Tfa)-AMC as substrate incubated for 120 mins by fluorescence analysis
T4 sequence (Q96DB2 whole entry): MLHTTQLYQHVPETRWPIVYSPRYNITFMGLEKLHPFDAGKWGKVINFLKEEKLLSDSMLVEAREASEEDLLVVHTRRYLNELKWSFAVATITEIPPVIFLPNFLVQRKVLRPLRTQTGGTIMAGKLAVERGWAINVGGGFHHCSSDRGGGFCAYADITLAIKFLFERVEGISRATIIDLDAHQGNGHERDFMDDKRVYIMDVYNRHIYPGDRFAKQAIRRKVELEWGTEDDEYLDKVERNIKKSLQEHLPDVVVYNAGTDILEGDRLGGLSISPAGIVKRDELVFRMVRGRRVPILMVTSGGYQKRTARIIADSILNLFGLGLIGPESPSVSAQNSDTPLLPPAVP

Homo sapiens = species: Homo sapiens; assay: Selectivity index, ratio IC50 for C-terminal His6/Flag-tagged recombinant human full length HDAC1 to IC50 for inhibition of recombinant human full length HDAC6
[14] = Half life in human liver microsomes at 100 uM by LC-MS/MS analysis; format: ADME, Microsome

Structure (SMILES) | IC50 [1] [nM] | other results
COc1cc2c(cc1O)CN1C(=O)CC[C@H]1C(=O)N2CCCCCCCC(=O)NO | 176 | –
COc1cc2c(cc1O)CN1C(=O)CC[C@H]1C(=O)N2Cc1cccc(C(=O)NO)c1 | 296 | –
Cc1ccc(=O)n(-c2ccccc2)c1 | – | Activity (Mus musculus [2]): Active; Activity (Mus musculus [3]): Active; Activity (Mus musculus [4]): Active; Activity (Mus musculus [5]): Active; Activity (Mus musculus [6]): Active; Activity (Mus musculus [7]): Active; Activity (Mus musculus [8]): Active; Activity (Mus musculus [9]): inactive; Activity (Mus musculus [10]): inactive; Activity (Mus musculus [11]): inactive; Activity (Mus musculus [12]): Active
O=C(CCCCCN1C(=O)[C@@H]2CCCN2Cc2ccccc21)NO | 8.45 | IC50 (Histone deacetylase 1): 437 nM; IC50 (Histone deacetylase 2): 2680 nM; IC50 (Histone deacetylase 4): 499 nM; IC50 (Histone deacetylase 7): 731 nM; IC50 [13]: 961 nM; IC50 (Histone deacetylase 11): > 50000 nM; Ratio IC50 (Homo sapiens): 51.7
O=C(Cc1ccc(CN2C(=O)[C@@H]3CCCN3Cc3ccccc32)cc1)NO | 288 | –
O=C(O)Cc1ccccc1Nc1c(Cl)cccc1Cl [DICLOFENAC] | – | half-life at 100 µM [14]: 5.3 min
O=C(CCCCCCCN1C(=O)[C@@H]2CCCN2Cc2ccccc21)NO | 291 | –
O=C(NO)c1cccc(CN2C(=O)[C@@H]3CCCN3Cc3ccccc32)c1 | > 300 | –
COc1cc2c(cc1OCc1ccccc1)CN1C(=O)CC[C@H]1C(=O)N2Cc1ccc(C(=O)NO)cc1 | 21.2 | –
O=C(CCCCCCN1C(=O)[C@@H]2CCCN2Cc2ccccc21)NO | 294 | –
COc1cc2c(cc1OCc1ccccc1)CN1C(=O)CC[C@H]1C(=O)N2Cc1cccc(C(=O)NO)c1 | 181 | –

More lines, main results first:

IC50 [1] [nM] | Structure (SMILES) | other results
17.4 | COc1cc2c(cc1OCc1ccccc1)CN1C(=O)CC[C@H]1C(=O)N2CCCCCC(=O)NO | –
275 | COc1cc2c(cc1OCc1ccccc1)CN1C(=O)CC[C@H]1C(=O)N2CCCCCCCC(=O)NO | –
13.5 | COc1cc2c(cc1O)CN1C(=O)CC[C@H]1C(=O)N2CCCCCCC(=O)NO | –
> 300 | O=C(NO)c1ccccc1CN1C(=O)[C@@H]2CCCN2Cc2ccccc21 | –
279 | COc1cc2c(cc1O)CN1C(=O)CC[C@H]1C(=O)N2Cc1ccccc1C(=O)NO | –
15.6 | COc1cc2c(cc1O)CN1C(=O)CC[C@H]1C(=O)N2CCCCCC(=O)NO | –
126 | COc1cc2c(cc1O)CN1C(=O)CC[C@H]1C(=O)N2Cc1ccc(C(=O)NO)cc1 | –
204 | COc1cc2c(cc1OCc1ccccc1)CN1C(=O)CC[C@H]1C(=O)N2Cc1ccccc1C(=O)NO | –
22.3 | COc1cc2c(cc1OCc1ccccc1)CN1C(=O)CC[C@H]1C(=O)N2Cc1ccc(CC(=O)NO)cc1 | –
12.1 | COc1cc2c(cc1OCc1ccccc1)CN1C(=O)CC[C@H]1C(=O)N2CCCCCCC(=O)NO | –
